Assay results from patent publication US4975434A, “Antiviral and anticancer cyclopentenyl cytosine” (priority 1989, dated 1990).
Values after ≈ are worked out from the molar mass of the structure shown. Values joined by “and” are separate entries in the source; they are usually repeats but may differ in a detail not shown here. Equal values may be shown once. “Also recorded” adds a separate entry of the source.

How the values were obtained:
[1] = system: Varicella-Zoster virus, isolate DM625; experiment: Varicella-Zoster Virus (VZV) Plaque Reduction Assay; type: cell-based
[2] = system: Influenza (Hong Kong), strain A2 /Aichi/2/68; experiment: microbe, parasite or virus in culture; type: cell-based, Influenza virus; host MDCK (Madin Darby canine kidney cells)
[3] = system: Vesicular Stomatitis virus, strain Indiana; type: cell-based
[4] = system: P388/ara-C (Arabinosyl cytosine resistant P388 leukemia); experiment: In vivo antitumor test, ara-C resistant P388 leukemia in mice; conditions: for activity against ara-C resistant P388: result in words
[5] = system: P388 leukemia; experiment: In vivo antitumor test, P388 leukemia in mice
[6] = system: Cytomegalovirus, strain AD 169; experiment: Cytomegalovirus (CMV) Yield Reduction Assay; type: cell-based
[7] = system: CTP synthesase; experiment: Inhibition of CTP synthesis (CTP synthesase); type: biochemical; conditions: result in words
[8] = system: A549 Lung; experiment: Human tumor xenograft in athymic mice, A549 lung (subrenal capsule)
[9] = system: Rhinovirus 1A; experiment: Antiviral activity against rhinovirus 1A; type: cell-based; conditions: result in words
[10] = system: L1210 leukemia; experiment: In vivo antitumor test, L1210 leukemia in mice; conditions: for Number of 60 day survivors per test group: QD1-9
[11] = system: c-myc mRNA; experiment: c-myc mRNA levels in HL-60 cells; type: cell-based, human
[12] = system: CTP pools; experiment: Nucleotide (CTP, UTP, ATP, GTP) levels in treated cells (HL-60); type: cell-based, human
[13] = system: Huf (human diploid foreskin cells); experiment: Toxicity to Huf host cells (gross cell morphology) in the VZV assay; type: cell-based
[14] = system: phosphorylation of uridine; experiment: Inhibition of uridine phosphorylation
[15] = system: HL-60 DNA synthesis / RNA synthesis; experiment: Inhibition of nucleic acid (DNA, RNA) synthesis in HL-60 cells; type: cell-based, human
[16] = system: L1210/ara-C Leukemia; experiment: In vivo antitumor test, ara-C resistant L1210 leukemia in mice; conditions: for Number of 60 day survivors per test group / % ILS: Table IV; for Number of 60 day survivors per test group: QD1-9; for % ILS: QD1-9, terminated day 60; for activity against ara-C resistant tumor: result in words
[17] = system: Janapese Encephalitis virus, strain Najayama; experiment: Antiviral test in vitro, Japanese encephalitis virus; type: cell-based, Japanese encephalitis virus; host Vero cells
[18] = system: Punta Toro virus, strain Adames; experiment: microbe, parasite or virus in culture; type: cell-based, Punta Toro virus; host Vero cells
[19] = system: Rift Valley Fever virus; conditions: USAMRIID, Fort Detrick
[20] = system: tumors; experiment: Antitumor activity (general statement); conditions: general statement
[21] = Table II Experiment 1, tumor IP, IP QD1-9, OD 1.5 mg/kg/injection
[22] = Table II Experiment 2, tumor IP, IP QD1-9, OD 1.5 mg/kg/injection
[23] = listed as cyclopentenyl cytosine
[24] = Table II Experiment 1, tumor IP, IP QD1-9, OD 1.0 mg/kg/injection
[25] = IP L1210, IP treatment daily days 1-9, optimum dose 1 mg/kg/inj (Table I)
[26] = IP L1210, IP treatment every 4th day, days 1, 5, 9, optimum dose 4 mg/kg/inj
[27] = IP L1210, IP treatment every 3 hr x 8, days 1, 5, 9, optimum dose 0.5 mg/kg/inj
[28] = Table II Experiment 1, tumor IP, oral drug administration, OD 2.25 mg/kg/injection
[29] = Table II Experiment 2, tumor IP, IP QD1-9, OD 1.0 mg/kg/injection
[30] = Table II Experiment 2, tumor IP, oral drug administration, OD 2.25 mg/kg/injection
[31] = Table II Experiment 2, tumor SC, IP QD1-9, OD 1.0 mg/kg/injection
[32] = minimum toxic drug concentration / ID50, Vero cells

Nc1ccn([C@@H]2C=C(CO)[C@@H](O)[C@H]2O)c(=O)n1 [CPE-C]
inhibition at 0.01 µg/mL ([1]; Human alphaherpesvirus 3, 144 h, 0.01 μg/ml, Huf cells): 0% | inhibition at 0.032 µg/mL ([1]; Human alphaherpesvirus 3, 144 h, 0.032 μg/ml, Huf cells): 3% | inhibition at 0.1 µg/mL ([1]; Human alphaherpesvirus 3, 144 h, 0.1 μg/ml, Huf cells): 21% | inhibition at 0.32 µg/mL ([1]; Human alphaherpesvirus 3, 144 h, 0.32 μg/ml, Huf cells): 33% | inhibition at 1 µg/mL ([1]; Human alphaherpesvirus 3, 144 h, 1.0 μg/ml, Huf cells): 36% | inhibition at 3.2 µg/mL ([1]; Human alphaherpesvirus 3, 144 h, 3.2 μg/ml, Huf cells): 33% | inhibition at 10 µg/mL ([1]; Human alphaherpesvirus 3, 144 h, 10 μg/ml, Huf cells): 33% | inhibition at 100 µg/mL ([1]; Human alphaherpesvirus 3, 144 h, 100 μg/ml, Huf cells): 41% | inhibition at 320 µg/mL ([1]; Human alphaherpesvirus 3, 144 h, 320 μg/ml, Huf cells): 36% | antiviral activity ([1]; result in words): Potent activity; also recorded: Activity was observed for both compounds | VR (virus rating) [2]: 2.4 | antiviral activity [2]: Good activity; also recorded: Virus ratings greater than two | IC50 ([2]; MDCK, in Canis lupus familiaris, read-out: ID50): 18.2 mg/L (≈ 76.1 µM) | VR (virus rating) ([3]; L929 cells, strain Indiana, two determinations): 2.4 and 3.0 | TI (therapeutic index) ([3]; minimum toxic drug concentration / ID50, L929 cells): 0.6 and 0.4 | antiviral activity ([3]; result in words): Good activity; also recorded: Virus ratings greater than two | % ILS [4, 21]: 165% | LCK [4, 21]: > 6.5 log | Number of 30 day survivors out of six mice [4, 21]: 3 | % ILS [4, 22]: 133% | LCK [4, 22]: 3.8 log | activity against ara-C resistant P388 [4]: collaterally sensitive | activity against ara-C resistant P388 [4, 23]: significant antitumor activity | % ILS [5, 24]: 88% | LCK [5, 24]: 0.9 log | % ILS [5, 22]: 69% | LCK [5, 22]: 0.1 log | activity ([5]; result in words): only modest activity | log reduction at 0.1 µg/mL ([6]; Human betaherpesvirus 5, 144 h, 0.1 μg/ml, MRC5 cells, read-out: Reduction in Virus Yield): 0.8 | log reduction at 0.32 µg/mL ([6]; Human betaherpesvirus 5, 144 h, 0.32 μg/ml, MRC5 cells, read-out: Reduction in Virus Yield): 1.3 | log reduction at 1 µg/mL ([6]; Human betaherpesvirus 5, 144 h, 1.0 μg/ml, MRC5 cells, read-out: Reduction in Virus Yield): 1.4 | log reduction at 3.2 µg/mL ([6]; Human betaherpesvirus 5, 144 h, 3.2 μg/ml, MRC5 cells, read-out: Reduction in Virus Yield): 1.5 | log reduction at 10 µg/mL ([6]; Human betaherpesvirus 5, 144 h, 10 μg/ml, MRC5 cells, read-out: Reduction in Virus Yield): 1.9 | log reduction at 32 µg/mL ([6]; Human betaherpesvirus 5, 144 h, 32 μg/ml, MRC5 cells, read-out: Reduction in Virus Yield): 2 | log reduction at 100 µg/mL ([6]; Human betaherpesvirus 5, 144 h, 100 μg/ml, MRC5 cells, read-out: Reduction in Virus Yield): 2 | log reduction at 320 µg/mL ([6]; Human betaherpesvirus 5, 144 h, 320 μg/ml, MRC5 cells, read-out: Reduction in Virus Yield): 5.3 | antiviral activity ([6]; result in words): Potent activity; also recorded: Activity was observed for both compounds | inhibition of CTP synthesis [7]: powerful inhibitors of CTP synthesis | growth inhibition [8]: 100% | Toxicity: weight loss and deaths ([8]; A549 experiments 1 and 2, 1.5 and 2.0 mg/kg/injection, each group of six mice): weight loss and one or two deaths | % Tumor Inhibition (negative value denotes tumor regression) ([8]; Table III Experiment 1, SRC, IP QD1-9, OD 1.5 mg/kg/injection, day 0 to 11): -59% | % Tumor Inhibition ([8]; Table III Experiment 2, SRC, IP QD1-9, OD 2.0 mg/kg/injection, day 0 to 11): 92% | antiviral activity [9]: Activity was not seen | long term survivors ([10]; IP 1.0 mg/kg, QD 1-9, 30-day, 1.5 mg/kg): Multiple 30-day survivors; also recorded: multiple long term survivors | ILS (median percent increase in life span) [10, 25]: 124% | LCK (approximate log cell kill at the end of treatment) [10, 25]: 3.0 log | ILS (median percent increase in life span) [10, 26]: 91% | LCK (approximate log cell kill at the end of treatment) [10, 26]: 0.1 log | ILS (median percent increase in life span) [10, 27]: 116% | LCK (approximate log cell kill at the end of treatment) [10, 27]: 1.5 log | schedule dependency ([10]; QD 1-9, Q4D, Q3Hx8): no significant schedule dependency | % ILS ([10]; Table II Experiment 1, tumor IC (intracerebral), IP QD1-9, OD 1.5 mg/kg/injection): 45% | % ILS [10, 24]: 212% | LCK [10, 24]: > 6.0 log | Number of 30 day survivors out of six mice [10, 24]: 4 | % ILS [10, 28]: 125% | LCK [10, 28]: 1.9 log | % ILS ([10]; Table II Experiment 1, tumor SC, IP QD1-9, OD 1.5 mg/kg/injection): 109% | % ILS ([10]; Table II Experiment 2, tumor IC (intracerebral), IP QD1-9, OD 1.0 mg/kg/injection): 42% | % ILS [10, 29]: 201% | LCK [10, 29]: > 5.8 log | Number of 30 day survivors out of six mice [10, 29]: 2 | % ILS [10, 30]: 57% | LCK [10, 30]: -2.2 log | % ILS [10, 31]: 83% | Number of 30 day survivors out of six mice [10, 31]: 1 | Number of 60 day survivors per test group ([10]; Table IV, CPE-C 1.0 mg/kg): 1/10 | % ILS ([10]; Table IV, CPE-C 1.0 mg/kg, QD1-9, terminated day 60): 116% | Number of 60 day survivors per test group ([10]; Table IV, CPE-C 1.5 mg/kg): 2/9 | % ILS ([10]; Table IV, CPE-C 1.5 mg/kg, QD1-9, terminated day 60): 171% | % ILS ([10]; Table IV, CPE-C 2.25 mg/kg, QD1-9, terminated day 60): 146% | potency relative to carbodine, in vivo antitumor ([10]; in vivo antitumor experiments): A similar potency difference | activity and potency relative to carbodine ([10]; initial in vivo tests): significantly greater levels of activity and potency than carbodine | ILS ([10]; intracerebral L1210, text): about 40% | activity, head to head comparison with 3DU ([10]; standard L1210 leukemia): significantly better | inhibition of c-myc mRNA levels [11]: more pronounced than the reduction in total cellular RNA synthesis; also recorded: reduction of c-myc RNA levels | CTP levels following drug removal ([12]; HL-60): sustained reduction in CTP levels | level of CTP ([12]; during CPE-C treatment): rapid and pronounced inhibition | half-life for the disappearance of CTP ([12]; during CPE-C treatment, HL-60): 1.5 to 2 h | level of UTP, ATP or GTP ([12]; during CPE-C treatment, HL-60): not of UTP, ATP or GTP | level of CTP pools ([12]; treated cells): near total abrogation of CTP pools | Host cell toxicity (gross cell morphology) ([13]; 320 μg/ml): Slightly toxic | Host cell toxicity (gross cell morphology) ([13]; 100 and 32 μg/ml): Very slightly toxic | inhibition of phosphorylation of uridine [14]: inhibited competitively the phosphorylation of uridine | RNA synthesis ([15]; 10^-7 M): inhibited to a lesser extent | DNA synthesis, % of control levels ([15]; 24 hrs. after exposure to 10^-7 M): 10% | Number of 60 day survivors per test group ([16]; CPE-C 1.0 mg/kg): 6/10 | % ILS ([16]; CPE-C 1.0 mg/kg): > 650% | Number of 60 day survivors per test group ([16]; CPE-C 1.5 mg/kg): 5/9 | % ILS ([16]; CPE-C 1.5 mg/kg): > 650% | Number of 60 day survivors per test group ([16]; CPE-C 2.25 mg/kg): 6/10 | % ILS ([16]; CPE-C 2.25 mg/kg): > 650% | activity against ara-C resistant tumor [16]: producing multiple cures against the resistant tumor; also recorded: collaterally sensitive | activity against ara-C resistant tumor [16, 23]: significant antitumor activity | IC50 ([17]; Japanese encephalitis virus, Vero, read-out: ID50): 0.1 mg/L (≈ 0.418 µM) | VR (virus rating) ([17]; Vero cells, strain Najayama): 2.4 | TI (therapeutic index) [17, 32]: 3.1 | antiviral activity ([17]; result in words): Good activity; also recorded: greater potency and higher therapeutic index than Ribavarin | VR (virus rating) [18]: 1.5 | IC50 ([18]; Punta Toro virus, Vero, read-out: ID50): 1.01 mg/L (≈ 4.22 µM) | TI (therapeutic index) [18, 32]: 0.3 | antiviral activity ([18]; result in words): Good activity; also recorded: Virus ratings greater than two | antiviral activity [19]: particularly active | activity against ara-C resistant tumors and human tumors grown in mice [20]: particularly potent and active agents
